The results in this text go back to patent US20200131473A1, “METHOD OF GENERATING 2 CELL-LIKE STEM CELLS” (IFOM FONDAZIONE ISTITUTO FIRC DI ONCOLOGIA MOLECOLARE, priority 2017, published 2020).

Assay [1] relates to Nanog, Pou5f1 (Oct4), Sox2. The assay can be described thus: Immunostaining and qPCR for canonical pluripotency markers in ESCs. The format is cell-based, mouse. The conditions noted are these: upon APH treatment. As for the experimental part:
RNA was extracted using RNeasy mini kit (QIAGEN), quantified by NanoDrop spectrophotometer and cDNA was prepared from 2 μg total DNA-depleted RNA using SuperScript™ III reverse transcriptase kit (Invitrogen cat #18080-093) following manufacturer's instructions. qPCR assay performed based on standard protocol using […] SsoFast™ EvaGreen® Supermix or later 1× LightCycler 480 SYBR Green I Master (Roche, 04707516001), 0.5 μM primer mix and 5 ng of cDNA. GAPDH was used as internal control to normalise the qPCR data following ΔΔCt method, 10 μM primer mix and a total amount of cDNA corresponding to 5 ng of starting RNA for each reaction. […] Then, cells were incubated with primary antibody at 4° C. overnight, followed by washes and incubation with secondary antibody for an hour at room temperature. Next samples were mounted and images were acquired with wide field florescent microscope. Antibodies used in this study were Anti Oct-3/4 (Santa Cruz sc-5279), Anti Nanog (Abcam ab80892) and Plet-1 antibody (Nordic MUbio MUB1512P) and), Anti-GFP (Abcam, ab5450). Acquired figures were analyzed with ImageJ software.

The test system of a further assay is ATR Seckel and WT ESCs. Nature of the assay: In-vitro differentiation toward giant trophoblast-like cells. The assay is classed as cell-based, mouse. As for the experimental part:
RNA was extracted using RNeasy mini kit (QIAGEN), quantified by NanoDrop spectrophotometer and cDNA was prepared from 2 μg total DNA-depleted RNA using SuperScript™ III reverse transcriptase kit (Invitrogen cat #18080-093) following manufacturer's instructions. qPCR assay performed based on standard protocol using 10× SsoFast™ EvaGreen® Supermix or later 1× LightCycler 480 SYBR Green I Master (Roche, 04707516001), 0.5 μM primer mix and 5 ng of cDNA. GAPDH was used as internal control to normalise the qPCR data following ΔΔCt method, 10 μM primer mix and a total amount of cDNA corresponding to 5 ng of starting RNA for each reaction.
Then, cells were incubated with primary antibody at 4° C. overnight, followed by washes and incubation with secondary antibody for an hour at room temperature. Next samples were mounted and images were acquired with wide field florescent microscope. Antibodies used in this study were Anti Oct-3/4 (Santa Cruz sc-5279), Anti Nanog (Abcam ab80892) and Plet-1 antibody (Nordic MUbio MUB1512P) and), Anti-GFP (Abcam, ab5450). Acquired figures were analyzed with ImageJ software. […]

Take `C[C@@]1(CO)[C@H](O)CC[C@@]2(C)[C@H]1CC[C@H]1C[C@@H]3C[C@@]12CC[C@]3(O)CO` [APH, aphidicolin]: in assay [1], the “Nanog, Pou5f1 (Oct4) protein in Zscan4 positive cells (immunostaining)” value was “mild downregulation”. The “expression of pluripotency related genes at the transcriptional level” value in assay [1] (Sox2, Nanog, Pou5f1, Rex1) is recorded as “no significant alterations”. For the same compound, the “number of giant trophoblast-like cells” value in the assay with ATR Seckel and WT ESCs (APH treatment) is “more than three folds”. The “giant trophoblast cell specific marker Prl2c2 (qPCR) in ATR activated condition” value with ATR Seckel and WT ESCs (wild type ESC treated with APH) is reported as “highest expression”.
